Measurements from patent US9108944B2, “Androgen receptor modulators and uses thereof” (ARAGON PHARMACEUTICALS, INC., priority 2010, dated 2015).

How the values were obtained:
[1] = target: T1, AR-VP16 (Homo sapiens, UniProt P10275); experiment: AR-VP16 DNA Binding Assay, antagonist mode (HepG2 cells, 0.1 nM R1881); type: cell-based
T1 sequence (P10275 560-920 limits assumed): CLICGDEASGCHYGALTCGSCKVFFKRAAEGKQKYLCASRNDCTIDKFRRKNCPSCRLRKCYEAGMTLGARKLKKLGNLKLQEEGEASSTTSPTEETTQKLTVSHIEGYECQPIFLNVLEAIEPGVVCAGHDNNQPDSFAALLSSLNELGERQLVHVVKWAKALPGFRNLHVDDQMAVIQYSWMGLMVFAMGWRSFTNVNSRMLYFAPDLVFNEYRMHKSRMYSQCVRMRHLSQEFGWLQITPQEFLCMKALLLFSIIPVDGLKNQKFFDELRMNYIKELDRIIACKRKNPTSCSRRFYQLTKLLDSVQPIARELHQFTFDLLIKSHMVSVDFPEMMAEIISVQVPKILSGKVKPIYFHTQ
Outline: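 HepG2 cells transiently transfected with AR-VP16 (Lipofectin), incubated overnight, then treated with compound in RPMI with charcoal-stripped serum. Antagonist mode adds R1881 at 0.1 nM final. Cells lysed after 48 h incubation for read-out.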

[2] = target: T1, AR-VP16; experiment: AR-VP16 DNA Binding Assay, agonist mode (HepG2 cells); type: cell-based; conditions: Emax >20x DMSO control = agonist

Row | Compound | IC50 [1] [µM] | ARVP16 DNA Binding Assay (Agonist mode): Agonist? [2]
1 | N#Cc1ncc(N2C(=O)C3(CCC3)N(c3cccc(F)c3F)C2=S)cc1C(F)(F)F [Compound 72, 5-(5-(2,3-Difluorophenyl)-8-oxo-6-thioxo-5,7-diazaspiro[3.4]octan-7-yl)-3-(trifluoromethyl)picolinonitrile] | < 1 | Yes (Agonist defined as a compound whose Emax in the ARVP16 DNA Binding Assay (Agonist mode) is >20x DMSO control)
2 | CCOC(=O)c1ccc(N2C(=S)N(c3cnc(C#N)c(C(F)(F)F)c3)C(=O)C23CCC3)cc1F [Compound 3, Ethyl 4-(7-(6-cyano-5-(trifluoromethyl)pyridin-3-yl)-8-oxo-6-thioxo-5,7-diazaspiro[3.4]octan-5-yl)-2-fluorobenzoate] | > 1 | No (Agonist defined as a compound whose Emax in the ARVP16 DNA Binding Assay (Agonist mode) is >20x DMSO control)
3 | N#Cc1ncc(N2C(=O)C3(CCC3)N(c3ccc(F)cc3)C2=S)cc1C(F)(F)F [Compound 28, 5-(5-(4-Fluorophenyl)-8-oxo-6-thioxo-5,7-diazaspiro[3.4]octan-7-yl)-3-(trifluoromethyl)picolinonitrile] | < 1 | No (Agonist defined as a compound whose Emax in the ARVP16 DNA Binding Assay (Agonist mode) is >20x DMSO control)
4 | N#Cc1ncc(N2C(=O)C3(CCC3)N(c3ccc(OCCCN4CCOCC4)c(F)c3)C2=S)cc1C(F)(F)F [Compound 150, 5-(5-(3-Fluoro-4-(3-morpholinopropoxy)phenyl)-8-oxo-6-thioxo-5,7-diazaspiro[3.4]octan-7-yl)-3-(trifluoromethyl)picolinonitrile] | < 1 | Yes (Agonist defined as a compound whose Emax in the ARVP16 DNA Binding Assay (Agonist mode) is >20x DMSO control)
5 | CNC(=O)c1ccc(N2C(=S)N(c3cnc(C#N)c(C)c3)C(=O)C23CCC3)c(F)c1 [Compound 104, 4-(7-(6-Cyano-5-methylpyridin-3-yl)-8-oxo-6-thioxo-5,7-diazaspiro[3.4]octan-5-yl)-3-fluoro-N-methylbenzamide] | < 1 | No (Agonist defined as a compound whose Emax in the ARVP16 DNA Binding Assay (Agonist mode) is >20x DMSO control)
6 | N#Cc1ncc(N2C(=O)C3(CCC3)N(c3ccc(C(=O)NCCCO)c(F)c3)C2=S)cc1C(F)(F)F [Compound 306, 4-(7-(6-cyano-5-(trifluoromethyl)pyridin-3-yl)-8-oxo-6-thioxo-5,7-diazaspiro[3.4]octan-5-yl)-2-fluoro-N-(3-hydroxypropyl)benzamide] | < 1 | No (Agonist defined as a compound whose Emax in the ARVP16 DNA Binding Assay (Agonist mode) is >20x DMSO control)
7 | N#Cc1ncc(N2C(=O)C3(CCC3)N(c3cccc(Oc4ccccc4)c3)C2=S)cc1C(F)(F)F [Compound 24, 5-(8-Oxo-5-(3-phenoxyphenyl)-6-thioxo-5,7-diazaspiro[3.4]octan-7-yl)-3-(trifluoromethyl)picolinonitrile] | > 1 | No (Agonist defined as a compound whose Emax in the ARVP16 DNA Binding Assay (Agonist mode) is >20x DMSO control)
8 | N#Cc1ncc(N2C(=O)C3(CCC3)N(c3ccc(F)cc3F)C2=S)cc1C(F)(F)F [Compound 76, 5-(5-(2,4-Difluorophenyl)-8-oxo-6-thioxo-5,7-diazaspiro[3.4]octan-7-yl)-3-(trifluoromethyl)picolinonitrile] | < 1 | Yes (Agonist defined as a compound whose Emax in the ARVP16 DNA Binding Assay (Agonist mode) is >20x DMSO control)
9 | N#Cc1ncc(N2C(=O)C3(CCC3)N(c3ccc(F)c(OCc4ccccc4)c3)C2=S)cc1C(F)(F)F [Compound 161, 5-(5-(3-(Benzyloxy)-4-fluorophenyl)-8-oxo-6-thioxo-5,7-diazaspiro[3.4]octan-7-yl)-3-(trifluoromethyl)picolinonitrile] | > 1 | No (Agonist defined as a compound whose Emax in the ARVP16 DNA Binding Assay (Agonist mode) is >20x DMSO control)
10 | Cc1ccc(N2C(=S)N(c3ccc(C#N)c(C(F)(F)F)n3)C(=O)C23CCC3)cc1 [Compound 34, 6-(8-Oxo-6-thioxo-5-(p-tolyl)-5,7-diazaspiro[3.4]octan-7-yl)-2-(trifluoromethyl)nicotinonitrile] | > 1 | No (Agonist defined as a compound whose Emax in the ARVP16 DNA Binding Assay (Agonist mode) is >20x DMSO control)
11 | CNC(=O)c1ccc(N2C(=S)N(c3cnc(C#N)c(C)c3)C(=O)C23CCC3)cc1OC [Compound 107, 4-(7-(6-Cyano-5-methylpyridin-3-yl)-8-oxo-6-thioxo-5,7-diazaspiro[3.4]octan-5-yl)-2-methoxy-N-methylbenzamide] | < 1 | No (Agonist defined as a compound whose Emax in the ARVP16 DNA Binding Assay (Agonist mode) is >20x DMSO control)
12 | N#Cc1ncc(N2C(=O)C3(CCC3)N(c3ccc(C(=O)O)c(F)c3)C2=S)cc1C(F)(F)F [Compound 224, 4-(7-(6-Cyano-5-(trifluoromethyl)pyridin-3-yl)-8-oxo-6-thioxo-5,7-diazaspiro[3.4]octan-5-yl)-2-fluorobenzoic acid] | > 1 | No (Agonist defined as a compound whose Emax in the ARVP16 DNA Binding Assay (Agonist mode) is >20x DMSO control)
13 | Cc1cc(N2C(=O)C3(CCC3)N(c3ccc(C(=O)Nc4cccc(Cl)c4)c(F)c3)C2=S)cnc1C#N [Compound 295, N-(3-Chlorophenyl)-4-(7-(6-cyano-5-methylpyridin-3-yl)-8-oxo-6-thioxo-5,7-diazaspiro[3.4]octan-5-yl)-2-fluorobenzamide] | < 1 | No (Agonist defined as a compound whose Emax in the ARVP16 DNA Binding Assay (Agonist mode) is >20x DMSO control)
14 | N#Cc1ncc(N2C(=O)C3(CCC3)N(c3ccc(CCCC(=O)O)cc3)C2=S)cc1C(F)(F)F [Compound 227, 4-(4-(7-(6-cyano-5-(trifluoromethyl)pyridin-3-yl)-8-oxo-6-thioxo-5,7-diazaspiro[3.4]octan-5-yl)phenyl)butanoic acid] | > 1 | No (Agonist defined as a compound whose Emax in the ARVP16 DNA Binding Assay (Agonist mode) is >20x DMSO control)
15 | N#Cc1ncc(N2C(=O)C3(CCC3)N(c3ccc(S(=O)(=O)CCc4ccncc4)cc3)C2=S)cc1C(F)(F)F [Compound 91, 5-(8-Oxo-5-(4-((2-(pyridin-4-yl)ethyl)sulfonyl)phenyl)-6-thioxo-5,7-diazaspiro[3.4]octan-7-yl)-3-(trifluoromethyl)picolinonitrile] | > 1 | No (Agonist defined as a compound whose Emax in the ARVP16 DNA Binding Assay (Agonist mode) is >20x DMSO control)
16 | Cn1ncc(Br)c1CCNC(=O)c1ccc(N2C(=S)N(c3cnc(C#N)c(C(F)(F)F)c3)C(=O)C23CCC3)cc1F [Compound 256, N-(2-(4-Bromo-1-methyl-1H-pyrazol-5-yl)ethyl)-4-(7-(6-cyano-5-(trifluoromethyl)pyridin-3-yl)-8-oxo-6-thioxo-5,7-diazaspiro[3.4]octan-5-yl)-2-fluorobenzamide] | < 1 | No (Agonist defined as a compound whose Emax in the ARVP16 DNA Binding Assay (Agonist mode) is >20x DMSO control)
17 | N#Cc1ncc(N2C(=O)C3(CCC3)N(c3ccc(F)c(C(=O)NCCCN4CCCC4)c3)C2=S)cc1C(F)(F)F [Compound 252, 5-(7-(6-Cyano-5-(trifluoromethyl)pyridin-3-yl)-8-oxo-6-thioxo-5,7-diazaspiro[3.4]octan-5-yl)-2-fluoro-N-(3-(pyrrolidin-1-yl)propyl)benzamide] | < 1 | No (Agonist defined as a compound whose Emax in the ARVP16 DNA Binding Assay (Agonist mode) is >20x DMSO control)
18 | N#Cc1ncc(N2C(=O)C3(CCC3)N(c3ccccc3-c3ccccc3)C2=S)cc1C(F)(F)F [Compound 15, 5-(5-([1,1′-Biphenyl]-2-yl)-8-oxo-6-thioxo-5,7-diazaspiro[3.4]octan-7-yl)-3-(trifluoromethyl)picolinonitrile] | > 1 | No (Agonist defined as a compound whose Emax in the ARVP16 DNA Binding Assay (Agonist mode) is >20x DMSO control)
19 | CN(CCCNC(=O)c1ccc(N2C(=S)N(c3cnc(C#N)c(C(F)(F)F)c3)C(=O)C23CCC3)cc1F)C1CCCC1 [Compound 307, 4-(7-(6-Cyano-5-(trifluoromethyl)pyridin-3-yl)-8-oxo-6-thioxo-5,7-diazaspiro[3.4]octan-5-yl)-N-(3-(cyclopentyl(methyl)amino)propyl)-2-fluorobenzamide] | < 1 | No (Agonist defined as a compound whose Emax in the ARVP16 DNA Binding Assay (Agonist mode) is >20x DMSO control)
20 | Cc1cc(N2C(=O)C3(CCC3)N(c3ccc(OC4CCNCC4)cc3)C2=S)cnc1C#N [Compound 210, 3-Methyl-5-(8-oxo-5-(4-(piperidin-4-yloxy)phenyl)-6-thioxo-5,7-diazaspiro[3.4]octan-7-yl)picolinonitrile] | > 1 | No (Agonist defined as a compound whose Emax in the ARVP16 DNA Binding Assay (Agonist mode) is >20x DMSO control)
